Measurements from patent publication US9988379B2, “GPR40 receptor agonist, methods of preparing the same, and pharmaceutical compositions containing the same as an active agent” (LG CHEM, LTD., priority 2012, dated 2018).

Target: T1, human GPR40 (Homo sapiens, UniProt O14842)
T1 construct: expressed in transfected cells; host or cells: CHO-K1
Experiment: Induction of Ca2+ (calcium flux assay) using human GPR40 expression cell line
Type: cell-based
Details: read-out: EC0.5
How it was run: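 Read-out is intracellular Ca2+ flux on FlexStation after test compounds (DMSO stocks diluted 200-fold in assay buffer) were added to dye-loaded human GPR40/CHO-K1 cells. Cells had been cultured 24 h, then incubated 1 h at 37° C with Calcium 5 dye, HBSS-HEPES pH 7.4; EC0.5 from concentration plot.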

T1 sequence (O14842 whole entry): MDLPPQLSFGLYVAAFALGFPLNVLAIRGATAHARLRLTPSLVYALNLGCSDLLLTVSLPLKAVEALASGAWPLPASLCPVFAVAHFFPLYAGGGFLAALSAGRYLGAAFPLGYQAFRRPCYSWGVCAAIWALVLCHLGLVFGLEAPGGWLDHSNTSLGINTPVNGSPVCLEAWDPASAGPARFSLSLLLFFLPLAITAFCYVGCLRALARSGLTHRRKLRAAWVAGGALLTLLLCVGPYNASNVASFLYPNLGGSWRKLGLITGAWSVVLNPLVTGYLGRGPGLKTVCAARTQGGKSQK

Row | Compound | EC50 [nM]
1 | CC#C[C@@H](CC(=O)O)c1ccc(OCc2cc3cnn(CC(C)C)c3cc2C)cc1 [Example 183, (S)-3-[4-(1-isobutyl-6-methyl-1H-indazol-5-ylmethoxy)-phenyl]-hex-4-ynoic acid] | 1 to 50
2 | CC#C[C@@H](CC(=O)O)c1ccc(OCc2ccc3c(c2)c(CC(C)C)nn3C)cc1 [Example 186, (S)-3-[4-(3-isobutyl-1-methyl-1H-indazol-5-ylmethoxy)-phenyl]-hex-4-ynoic acid] | 1 to 50
3 | CC#C[C@@H](CC(=O)O)c1ccc(OCc2ccc3c(COC)nn(CC(C)C)c3c2)cc1 [Example 188, (S)-3-[4-(1-isobutyl-3-methoxymethyl-1H-indazol-6-ylmethoxy)-phenyl]-hex-4-ynoic acid] | 5
4 | CC#C[C@@H](CC(=O)O)c1ccc(OCc2ccc3c(COCC)nn(CC(C)C)c3c2)cc1 [Example 191, (S)-3-[4-(3-ethoxymethyl-1-isobutyl-1H-indazol-6-ylmethoxy)-phenyl]-hex-4-ynoic acid] | 10
5 | CC#C[C@@H](CC(=O)O)c1ccc(OCc2ccc3c(COC(C)C)nn(CC(C)C)c3c2)cc1 [Example 193, (S)-3-[4-(1-isobutyl-3-isopropoxymethyl-1H-indazol-6-ylmethoxy)-phenyl]-hex-4-ynoic acid] | 3
6 | CC#C[C@@H](CC(=O)O)c1ccc(OCc2cccc3c(Br)nn(C)c23)cc1 [Example 195, (S)-3-[4-(3-bromo-1-methyl-1H-indazol-7-ylmethoxy)-phenyl]-hex-4-ynoic acid] | 6
7 | CC#C[C@@H](CC(=O)O)c1ccc(OCc2ccc3c(COC)nn(CC(C)C)c3c2C)cc1 [Example 196, (S)-3-[4-(1-isobutyl-3-methoxymethyl-7-methyl-1H-indazol-6-ylmethoxy)-phenyl]-hex-4-ynoic acid] | 5
8 | CC#C[C@@H](CC(=O)O)c1ccc(OCc2cccc3c2cnn3CCCC)cc1 [Example 197, (S)-3-[4-(1-butyl-1H-indazol-4-ylmethoxy)-phenyl]-hex-4-ynoic acid] | 5
9 | CC#C[C@@H](CC(=O)O)c1ccc(OCc2cccc3c2cnn3CC2CC2)cc1 [Example 199, (S)-3-[4-(1-cyclopropylmethyl-1H-indazol-4-ylmethoxy)-phenyl]-hex-4-ynoic acid] | 17
10 | CC#C[C@@H](CC(=O)O)c1ccc(OCc2ccc3c(Cn4cccn4)nn(C(C)C)c3c2)cc1 [Example 202, (S)-3-[4-(1-isopropyl-3-pyrazol-1-ylmethyl-1H-indazol-6-ylmethoxy)-phenyl]-hex-4-ynoic acid] | 8
11 | CC#C[C@@H](CC(=O)O)c1ccc(OCc2ccnc3c2ccn3CC(C)C)cc1 [Example 204, (S)-3-[4-(1-isobutyl-1H-pyrrolo[2,3-b]pyridin-4-ylmethoxy)-phenyl]-hex-4-ynoic acid] | 9
12 | CC#C[C@@H](CC(=O)O)c1ccc(OCc2cccc3c(CCCC)nn(C)c23)cc1 [Example 206, (S)-3-[4-(3-butyl-1-methyl-1H-indazol-7-ylmethoxy)-phenyl]-hex-4-ynoic acid] | 1 to 50
13 | CC#C[C@@H](CC(=O)O)c1ccc(OCc2ccc(C)c3c2cnn3CC(C)C)cc1 [Example 208, (S)-3-[4-(1-isobutyl-7-methyl-1H-indazol-4-ylmethoxy)-phenyl]-hex-4-ynoic acid] | 5
14 | CC#C[C@@H](CC(=O)O)c1ccc(OCc2cccc3c(CCC)nn(C)c23)cc1 [Example 210, (S)-3-[4-(1-methyl-3-propyl-1H-indazol-7-ylmethoxy)-phenyl]-hex-4-ynoic acid] | 8
15 | CC#C[C@@H](CC(=O)O)c1ccc(OCc2ccc3cnn(CC(C)C)c3c2C)cc1 [Example 211, (S)-3-[4-(1-isobutyl-7-methyl-1H-indazol-6-ylmethoxy)-phenyl]-hex-4-ynoic acid] | 4
16 | CC#C[C@@H](CC(=O)O)c1ccc(OCc2ccc3c(C)nn(CC(C)C)c3c2C)cc1 [Example 212, (S)-3-[4-(1-isobutyl-3,7-dimethyl-1H-indazol-6-ylmethoxy)-phenyl]-hex-4-ynoic acid] | 2

The remaining lines, values ahead:

Row | EC50 [nM] | Compound
17 | 1 to 50 | CC#C[C@@H](CC(=O)O)c1ccc(OCc2cccc3c2cnn3CC(C)C)cc1 [Example 184, (S)-3-[4-(1-isobutyl-1H-indazol-4-ylmethoxy)-phenyl]-hex-4-ynoic acid]
18 | 1 to 50 | CC#C[C@@H](CC(=O)O)c1ccc(OCc2ccc3c(C)nn(C(C)C)c3c2)cc1 [Example 185, (S)-3-[4-(1-isopropyl-3-methyl-1H-indazol-6-ylmethoxy)-phenyl]-hex-4-ynoic acid]
19 | 1 to 50 | CC#C[C@@H](CC(=O)O)c1ccc(OCc2ccc3c(c2)c(C)nn3C(C)C)cc1 [Example 187, (S)-3-[4-(1-isopropyl-3-methyl-1H-indazol-5-ylmethoxy)-phenyl]-hex-4-ynoic acid]
20 | 1 to 50 | CC#C[C@@H](CC(=O)O)c1ccc(OCc2cccc3c2c(F)nn3CC(C)C)cc1 [Example 189, (S)-3-[4-(3-fluoro-1-isobutyl-1H-indazol-4-ylmethoxy)-phenyl]-hex-4-ynoic acid]
21 | 40 | CC#C[C@@H](CC(=O)O)c1ccc(OCc2cccc3c2cnn3C(C)C)cc1 [Example 190, (S)-3-[4-(1-isopropyl-1H-indazol-4-ylmethoxy)-phenyl]-hex-4-ynoic acid]
22 | 30 | CC#C[C@@H](CC(=O)O)c1ccc(OCc2cccc3c2c(Cl)nn3CC(C)C)cc1 [Example 192, (S)-3-[4-(3-chloro-1-isobutyl-1H-indazol-4-ylmethoxy)-phenyl]-hex-4-ynoic acid]
23 | 1 to 50 | CC#C[C@@H](CC(=O)O)c1ccc(OCc2cccc3c2c(F)nn3C(C)C)cc1 [Example 194, (S)-3-[4-(3-fluoro-1-isopropyl-1H-indazol-4-ylmethoxy)-phenyl]-hex-4-ynoic acid]
24 | 16 | CC#C[C@@H](CC(=O)O)c1ccc(OCc2cccc3c2c(F)nn3CCCC)cc1 [Example 198, (S)-3-[4-(1-butyl-3-fluoro-1H-indazol-4-ylmethoxy)-phenyl]-hex-4-ynoic acid]
25 | 9 | CC#C[C@@H](CC(=O)O)c1ccc(OCc2cccc3c2c(F)nn3CC2CC2)cc1 [Example 200, (S)-3-[4-(1-cyclopropylmethyl-3-fluoro-1H-indazol-4-ylmethoxy)-phenyl]-hex-4-ynoic acid]
26 | 10 | CC#C[C@@H](CC(=O)O)c1ccc(OCc2cccc3c(Cl)nn(C)c23)cc1 [Example 201, (S)-3-[4-(3-chloro-1-methyl-1H-indazol-7-ylmethoxy)-methyl]-hex-4-ynoic acid]
27 | 1 to 50 | CC#C[C@@H](CC(=O)O)c1ccc(OCc2cccc3c(F)nn(C)c23)cc1 [Example 203, (S)-3-[4-(3-fluoro-1-methyl-1H-indazol-7-ylmethoxy)-phenyl]-hex-4-ynoic acid]
28 | 16 | CC#C[C@@H](CC(=O)O)c1ccc(OCc2cccc3c2c(C)nn3CCCC)cc1 [Example 205, (S)-3-[4-(1-butyl-3-methyl-1H-indazol-4-ylmethoxy)-phenyl]-hex-4-ynoic acid]
29 | 1 to 50 | CC#C[C@@H](CC(=O)O)c1ccc(OCc2cccc3c(CC(C)C)nn(C)c23)cc1 [Example 207, (S)-3-[4-(3-isobutyl-1-methyl-1H-indazol-7-ylmethoxy)-phenyl]-hex-4-ynoic acid]
30 | 1 to 50 | CC#C[C@@H](CC(=O)O)c1ccc(OCc2cccc3c(C(C)C)nn(C)c23)cc1 [Example 209, (S)-3-[4-(3-isopropyl-1-methyl-1H-indazol-7-ylmethoxy)-phenyl]-hex-4-ynoic acid]
